In article PMC6273213, “Novel Triazole-Quinoline Derivatives as Selective Dual Binding Site Acetylcholinesterase Inhibitors” (Molecules, 2016):
Where a name gives a salt, the structure may show the parent alone.

Legend:
hAChE = target: T1, hAChE (Homo sapiens, UniProt P22303); assay: biochemical; settings: for inhibition at 100 µM: 100 μM compound, substrate ACThI; for inhibition at 100 µM / IC50: human recombinant hAChE; for IC50: at least six concentrations, read-out: IC50 ± SEM (μM) hAChE; for Ki: steady-state inhibition constant from replots of reciprocal plots, read-out: Ki ± SEM (μM) hAChE; for Mechanism Type hAChE: Lineweaver-Burk plots
T1 construct: purchased Sigma-Aldrich; host or cells: HEK 293 cells
Protocol: (§1) Buffer components and all of the chemicals used were all analytical grade materials, and were obtained from Sigma, Merck (Darmstadt, Germany), Synth (São Paulo, Brazil) or Acros (Geel, Belgium). The water used in all of the preparations was purified with a Millipore Milli-Q® system (Millipore, São Paulo, Brazil).
(§2) The ligand assays were carried out in accordance with the literature, albeit with some modifications. Briefly, the assays were carried out using a 96-well microplate with an Elisa microplate reader. To a final volume of 250 µL, each well was filled with: 125 µL of Ellman’s reagent (3 mM in […] phosphate buffer pH 7.4); 50 µL of buffer TRIS (50 mM, pH 8.0); 25 µL of enzyme solution at the final concentration 0.28 U/mL (in […] phosphate buffer pH 7.4); 25 µL of the ACThI (15 mM) for AChE and 25 µL of the BCThI (15 mM) for BChE; and 25 µL of each inhibitor sample (1 mM), final concentration at 100 µM. The microplate was shaken for 10 s followed by reading the absorbance at 412 nm at 30 s intervals for two minutes. The negative control (compound and absence of ACThI) and a positive control (ACThI and absence of compound) were carried out.
(§3) The assays were carried out in duplicate.
IC50 values were independently determined by performing rate measurements for at least six concentrations of the target inhibitor. The nonlinear regression parameters were calculated, and the IC50 was extrapolated.

hBChE = target: T2, hBChE (Homo sapiens, UniProt P06276); assay: biochemical; settings: 100 μM compound; substrate BCThI
T2 construct: hBChE EC 3.1.1.8, 50 units mg^−1 from human erythrocytes; purchased Sigma-Aldrich; host or cells: human erythrocytes
Protocol: as §1, §2, §3

T2 sequence (P06276 29-602): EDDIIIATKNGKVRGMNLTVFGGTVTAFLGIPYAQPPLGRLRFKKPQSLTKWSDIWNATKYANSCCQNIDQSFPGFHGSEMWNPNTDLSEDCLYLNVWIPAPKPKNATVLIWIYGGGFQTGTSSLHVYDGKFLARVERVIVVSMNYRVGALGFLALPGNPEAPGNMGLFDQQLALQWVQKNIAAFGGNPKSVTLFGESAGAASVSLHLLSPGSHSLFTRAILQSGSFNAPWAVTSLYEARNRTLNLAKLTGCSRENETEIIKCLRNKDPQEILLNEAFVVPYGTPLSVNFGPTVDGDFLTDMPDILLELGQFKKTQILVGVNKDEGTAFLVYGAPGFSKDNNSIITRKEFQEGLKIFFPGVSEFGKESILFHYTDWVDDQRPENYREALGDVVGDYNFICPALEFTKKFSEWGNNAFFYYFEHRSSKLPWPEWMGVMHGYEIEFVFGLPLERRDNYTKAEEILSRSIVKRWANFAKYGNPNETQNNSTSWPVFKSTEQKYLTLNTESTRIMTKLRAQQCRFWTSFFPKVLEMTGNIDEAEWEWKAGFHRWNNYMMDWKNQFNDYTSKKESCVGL
T1 sequence (P22303 32-614): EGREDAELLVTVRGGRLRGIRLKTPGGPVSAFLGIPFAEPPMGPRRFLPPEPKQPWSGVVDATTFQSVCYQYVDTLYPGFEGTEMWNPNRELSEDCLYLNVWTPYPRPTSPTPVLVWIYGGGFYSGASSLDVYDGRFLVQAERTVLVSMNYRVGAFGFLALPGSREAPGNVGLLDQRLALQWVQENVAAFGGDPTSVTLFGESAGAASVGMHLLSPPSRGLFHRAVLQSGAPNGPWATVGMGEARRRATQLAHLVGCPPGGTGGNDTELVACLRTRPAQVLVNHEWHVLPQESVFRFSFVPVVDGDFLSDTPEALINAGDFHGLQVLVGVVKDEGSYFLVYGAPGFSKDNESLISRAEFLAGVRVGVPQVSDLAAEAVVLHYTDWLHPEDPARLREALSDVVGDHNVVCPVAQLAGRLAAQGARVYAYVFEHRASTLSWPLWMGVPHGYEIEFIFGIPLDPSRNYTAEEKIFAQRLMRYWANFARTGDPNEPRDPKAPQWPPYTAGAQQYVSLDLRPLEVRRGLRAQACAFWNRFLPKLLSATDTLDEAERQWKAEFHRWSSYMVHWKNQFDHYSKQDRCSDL

Row | SMILES | inhibition at 100 µM (hAChE) | IC50 (hAChE) | Ki (hAChE) | inhibition at 100 µM (hBChE) | Mechanism Type hAChE (hAChE)
1 | COc1cc2c(cc1OC)C(=O)/C(=C/c1ccc(-c3cn(-c4ccnc5ccccc45)nn3)cc1)C2 [3a, (E)-5,6-Dimethoxy-2-(4-(1-(quinolin-4-yl)-1H-1,2,3-triazol-4-yl)benzylidene)-2,3-dihydro-1H-inden-1-one] | 29% | 128 ± 25 µM | 185 ± 29 µM | 0% | 
2 | O=C1C(=Cc2ccc(-c3cn(-c4ccnc5ccccc45)nn3)cc2)Cc2cc3c(cc21)OCO3 [3b, (E)-5,6-Methilenedioxy-2-(4-(1-(quinolin-4-yl)-1H-1,2,3-triazol-4-yl)benzylidene)-2,3-dihydro-1H-inden-1-one] | 0% |  |  | 5.2% | 
3 | COc1cc2c(cc1Cl)C/C(=C\c1ccc(-c3cn(-c4ccnc5ccccc45)nn3)cc1)C2=O [3c, (E)-5-Chloro-6-methoxy-2-(4-(1-(quinolin-4-yl)-1H-1,2,3-triazol-4-yl)benzylidene)-2,3-dihydro-1H-inden-1-one] | 5.4% |  |  | 6.2% | 
4 | Cc1ccc2c(c1)C(=O)/C(=C/c1ccc(-c3cn(-c4ccnc5ccccc45)nn3)cc1)C2 [3d, (E)-6-Methyl-2-(4-(1-(quinolin-4-yl)-1H-1,2,3-triazol-4-yl)benzylidene)-2,3-dihydro-1H-inden-1-one] | 9.1% |  |  | 0% | 
5 | O=C1/C(=C/c2ccc(-c3cn(-c4ccnc5ccccc45)nn3)cc2)Cc2ccc(Cl)cc21 [3e, (E)-6-Chloro-2-(4-(1-(quinolin-4-yl)-1H-1,2,3-triazol-4-yl)benzylidene)-2,3-dihydro-1H-inden-1-one] | 37.7% | 147 ± 15 µM | 530 ± 150 µM | 0% | 
6 | COc1ccc2c(c1)C/C(=C\c1ccc(-c3cn(-c4ccnc5ccccc45)nn3)cc1)C2=O [3g, (E)-5-Methoxy-2-(4-(1-(quinolin-4-yl)-1H-1,2,3-triazol-4-yl)benzylidene)-2,3-dihydro-1H-inden-1-one] | 48.1% | 114 ± 10 µM | 220 ± 60 µM | 0.2% | mixed-type
7 | COc1ccc2c(c1)C(=O)/C(=C/c1ccc(-c3cn(-c4ccnc5ccccc45)nn3)cc1)C2 [3h, (E)-6-Methoxy-2-(4-(1-(quinolin-4-yl)-1H-1,2,3-triazol-4-yl)benzylidene)-2,3-dihydro-1H-inden-1-one] | 55.7% | 109 µM | 245 ± 70 µM | 0% | mixed-type
8 | COc1cc2c(cc1OC)C(=O)C(CC1CCN(Cc3ccccc3)CC1)C2 (stereo not shown) [Donepezil, donepezil hydrochloride monohydrate, reference compound] |  |  |  | 11.1% | 
